{"source": "patent US9695155B2", "about": "“Herbicidal substituted pyrimidinyloxy benzene compounds” (E. I. DU PONT DE NEMOURS AND COMPANY, priority 2013, dated 2017)", "key": {"[1]": {"test_system": "lambsquarters", "assay": "Test D postemergence", "assay_type": "in vivo, Chenopodium album", "conditions": "Chenopodium album, post-emergence, scale 0 to 100 (0 no effect, 100 complete control), read-out: Plant response rating, Lambsquarters", "summary_of_the_method": "(§1)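 Plant response is a visual score from 0 (no effect) to 100 (complete control) relative to controls. Plants were kept in a controlled growth environment for 7 to 21 days after spraying. Preemergence treatments went onto silt loam soil; postemergence ones onto 1- to 4-leaf seedlings.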"}, "[2]": {"test_system": "green foxtail", "assay": "Test D postemergence", "assay_type": "in vivo, Setaria viridis", "conditions": "Setaria viridis, post-emergence, scale 0 to 100 (0 no effect, 100 complete control), read-out: Plant response rating, Foxtail, Green", "summary_of_the_method": "as §1"}, "[3]": {"test_system": "wild poinsettia", "assay": "Test E postemergence", "assay_type": "in vivo, Euphorbia heterophylla", "conditions": "Euphorbia heterophylla, post-emergence; Postemergence, 250 g ai/ha, scale 0 to 100; read-out: Plant response rating, Poinsettia, Wild", "summary_of_the_method": "(§2)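 Compound in a non-phytotoxic solvent mixture with surfactant was applied preemergence to seeds in silt loam soil, or postemergence to plants 2 to 18 cm tall grown in peat-based potting medium. Plants were kept in a greenhouse for 14 to 21 days, then rated visually against untreated controls on a 0 (no effect) to 100 (complete control) scale.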"}, "[4]": {"test_system": "spring barley", "assay": "Test D postemergence", "assay_type": "in vivo, Hordeum vulgare", "conditions": "Hordeum vulgare, post-emergence, Postemergence, scale 0 to 100 (0 no effect, 100 complete control), read-out: Plant response rating, Barley, Spring", "summary_of_the_method": "as §1"}, "[5]": {"test_system": "winter barley", "assay": "Test D postemergence", "assay_type": "in vivo, Hordeum vulgare", "conditions": "Hordeum vulgare, post-emergence, Postemergence, scale 0 to 100 (0 no effect, 100 complete control), read-out: Plant response rating, Barley, Winter", "summary_of_the_method": "as §1"}, "[6]": {"test_system": "oilseed rape", "assay": "Test D preemergence", "assay_type": "in vivo, Brassica napus", "conditions": "Brassica napus, pre-emergence, scale 0-100, read-out: Plant response rating, Oilseed Rape", "summary_of_the_method": "as §1"}, "[7]": {"test_system": "wild buckwheat", "assay": "Test D postemergence", "assay_type": "in vivo, Polygonum convolvulus", "conditions": "Fallopia convolvulus, post-emergence, Postemergence, scale 0 to 100 (0 no effect, 100 complete control), read-out: Plant response rating, Buckwheat, Wild", "summary_of_the_method": "as §1"}, "[8]": {"test_system": "canarygrass", "assay": "Test D postemergence", "assay_type": "in vivo, Phalaris minor", "conditions": "Phalaris minor, post-emergence, scale 0 to 100 (0 no effect, 100 complete control), read-out: Plant response rating, Canarygrass", "summary_of_the_method": "as §1"}, "[9]": {"test_system": "kochia", "assay": "Test D postemergence", "assay_type": "in vivo, Kochia scoparia", "conditions": "Bassia scoparia, post-emergence, scale 0 to 100 (0 no effect, 100 complete control), read-out: Plant response rating, Kochia", "summary_of_the_method": "as §1"}, "[10]": {"test_system": "green foxtail", "assay": "Test D preemergence", "assay_type": "in vivo, Setaria viridis", "conditions": "Setaria viridis, pre-emergence, scale 0-100, read-out: Plant response rating, Foxtail, Green", "summary_of_the_method": "as §1"}, "[11]": {"test_system": "waterhemp", "assay": "Test E postemergence", "assay_type": "in vivo, Amaranthus rudis", "conditions": "Amaranthus tuberculatus, post-emergence, read-out: Plant response rating, Waterhemp", "summary_of_the_method": "as §2"}, "[12]": {"test_system": "waterhemp_RES2 (ALS & HPPD resistant common waterhemp)", "assay": "Test E postemergence", "assay_type": "in vivo, Amaranthus rudis", "conditions": "Amaranthus tuberculatus, post-emergence, read-out: Plant response rating, Waterhemp_RES2", "summary_of_the_method": "as §2"}, "[13]": {"test_system": "chamomile", "assay": "Test D postemergence", "assay_type": "in vivo, Matricaria inodora", "conditions": "Tripleurospermum inodorum, post-emergence, scale 0 to 100 (0 no effect, 100 complete control), read-out: Plant response rating, Chamomile", "summary_of_the_method": "as §1"}, "[14]": {"conditions": "Postemergence, 31 g ai/ha, scale 0 to 100"}, "[15]": {"conditions": "Postemergence, 62 g ai/ha, scale 0 to 100"}, "[16]": {"conditions": "Postemergence, 125 g ai/ha, scale 0 to 100"}, "[17]": {"conditions": "Postemergence, 250 g ai/ha, scale 0 to 100"}, "[18]": {"conditions": "postemergence, 16 g ai/ha, scale 0 to 100, 0 no effect, 100 complete control"}}}
{"smiles": "N#Cc1cccc(Oc2ncc(Cl)cn2)c1-n1cc(C(F)(F)F)cn1", "note": "[Compound 58, 3-[(5-chloro-2-pyrimidinyl)oxy]-2-[4-(trifluoromethyl)-1H-pyrazol-1-yl]benzonitrile]", "values": [{"measurement": "pest or weed control at 31 g/ha", "setting": "[1]; 31 g ai/ha", "value": 75, "unit": "%"}, {"measurement": "pest or weed control at 62 g/ha", "setting": "[1]; 62 g ai/ha", "value": 90, "unit": "%"}, {"measurement": "pest or weed control at 125 g/ha", "setting": "[1]; 125 g ai/ha", "value": 95, "unit": "%"}, {"measurement": "pest or weed control at 250 g/ha", "setting": "[1]; 250 g ai/ha", "value": 90, "unit": "%"}, {"measurement": "pest or weed control at 31 g/ha", "setting": "[2]; 31 g ai/ha", "value": 20, "unit": "%"}, {"measurement": "pest or weed control at 62 g/ha", "setting": "[2]; 62 g ai/ha", "value": 40, "unit": "%"}, {"measurement": "pest or weed control at 125 g/ha", "setting": "[2]; 125 g ai/ha", "value": 65, "unit": "%"}, {"measurement": "pest or weed control at 250 g/ha", "setting": "[2]; 250 g ai/ha", "value": 80, "unit": "%"}, {"measurement": "pest or weed control at 250 g/ha", "setting": "[3]", "value": 90, "unit": "%"}, {"measurement": "plant injury at 31 g/ha", "setting": "[4]; 31 g ai/ha", "value": 15, "unit": "%"}, {"measurement": "plant injury at 62 g/ha", "setting": "[4]; 62 g ai/ha", "value": 20, "unit": "%"}, {"measurement": "plant injury at 125 g/ha", "setting": "[4]; 125 g ai/ha", "value": 30, "unit": "%"}, {"measurement": "plant injury at 250 g/ha", "setting": "[4]; 250 g ai/ha", "value": 40, "unit": "%"}, {"measurement": "plant injury at 31 g/ha", "setting": "[5]; 31 g ai/ha", "value": 10, "unit": "%"}, {"measurement": "plant injury at 62 g/ha", "setting": "[5]; 62 g ai/ha", "value": 15, "unit": "%"}, {"measurement": "plant injury at 125 g/ha", "setting": "[5]; 125 g ai/ha", "value": 25, "unit": "%"}, {"measurement": "plant injury at 250 g/ha", "setting": "[5]; 250 g ai/ha", "value": 50, "unit": "%"}, {"measurement": "plant injury at 31 g/ha", "setting": "[6]; 31 g ai/ha", "value": 100, "unit": "%"}, {"measurement": "plant injury at 62 g/ha", "setting": "[6]; 62 g ai/ha", "value": 100, "unit": "%"}, {"measurement": "plant injury at 125 g/ha", "setting": "[6]; 125 g ai/ha", "value": 100, "unit": "%"}, {"measurement": "plant injury at 250 g/ha", "setting": "[6]; 250 g ai/ha", "value": 100, "unit": "%"}, {"measurement": "pest or weed control at 31 g/ha", "setting": "[7]; 31 g ai/ha", "value": 90, "unit": "%"}, {"measurement": "pest or weed control at 62 g/ha", "setting": "[7]; 62 g ai/ha", "value": 100, "unit": "%"}, {"measurement": "pest or weed control at 125 g/ha", "setting": "[7]; 125 g ai/ha", "value": 100, "unit": "%"}, {"measurement": "pest or weed control at 250 g/ha", "setting": "[7]; 250 g ai/ha", "value": 100, "unit": "%"}, {"measurement": "pest or weed control at 31 g/ha", "setting": "[8]; 31 g ai/ha", "value": 35, "unit": "%"}, {"measurement": "pest or weed control at 62 g/ha", "setting": "[8]; 62 g ai/ha", "value": 40, "unit": "%"}, {"measurement": "pest or weed control at 125 g/ha", "setting": "[8]; 125 g ai/ha", "value": 50, "unit": "%"}, {"measurement": "pest or weed control at 250 g/ha", "setting": "[8]; 250 g ai/ha", "value": 70, "unit": "%"}, {"measurement": "pest or weed control at 31 g/ha", "setting": "[9]; 31 g ai/ha", "value": 95, "unit": "%"}, {"measurement": "pest or weed control at 62 g/ha", "setting": "[9]; 62 g ai/ha", "value": 95, "unit": "%"}, {"measurement": "pest or weed control at 125 g/ha", "setting": "[9]; 125 g ai/ha", "value": 95, "unit": "%"}, {"measurement": "pest or weed control at 250 g/ha", "setting": "[9]; 250 g ai/ha", "value": 95, "unit": "%"}, {"measurement": "pest or weed control at 31 g/ha", "setting": "[10]; 31 g ai/ha", "value": 100, "unit": "%"}, {"measurement": "pest or weed control at 62 g/ha", "setting": "[10]; 62 g ai/ha", "value": 100, "unit": "%"}, {"measurement": "pest or weed control at 125 g/ha", "setting": "[10]; 125 g ai/ha", "value": 100, "unit": "%"}, {"measurement": "pest or weed control at 250 g/ha", "setting": "[10]; 250 g ai/ha", "value": 100, "unit": "%"}, {"measurement": "pest or weed control at 31 g/ha", "setting": "[11]; [14]", "value": 85, "unit": "%"}, {"measurement": "pest or weed control at 62 g/ha", "setting": "[11]; [15]", "value": 95, "unit": "%"}, {"measurement": "pest or weed control at 125 g/ha", "setting": "[11]; [16]", "value": 100, "unit": "%"}, {"measurement": "pest or weed control at 250 g/ha", "setting": "[11]; [17]", "value": 100, "unit": "%"}, {"measurement": "pest or weed control at 16 g/ha", "setting": "[11]; [18]", "value": 75, "unit": "%"}, {"measurement": "pest or weed control at 31 g/ha", "setting": "[12]; [14]", "value": 90, "unit": "%"}, {"measurement": "pest or weed control at 62 g/ha", "setting": "[12]; [15]", "value": 90, "unit": "%"}, {"measurement": "pest or weed control at 125 g/ha", "setting": "[12]; [16]", "value": 95, "unit": "%"}, {"measurement": "pest or weed control at 250 g/ha", "setting": "[12]; [17]", "value": 100, "unit": "%"}, {"measurement": "pest or weed control at 16 g/ha", "setting": "[12]; [18]", "value": 80, "unit": "%"}, {"measurement": "pest or weed control at 31 g/ha", "setting": "[13]; 31 g ai/ha", "value": 10, "unit": "%"}, {"measurement": "pest or weed control at 62 g/ha", "setting": "[13]; 62 g ai/ha", "value": 25, "unit": "%"}, {"measurement": "pest or weed control at 125 g/ha", "setting": "[13]; 125 g ai/ha", "value": 35, "unit": "%"}, {"measurement": "pest or weed control at 250 g/ha", "setting": "[13]; 250 g ai/ha", "value": 35, "unit": "%"}]}
